Reference: the supplement of paper PMC8882468

The compounds below were run on HCI-010 (organoid from a breast cancer xenograft) (assay: CTG-3D luminescence at 96 h relative to day-0 seeding control (ratio to day 0); higher = more growth / less cytotoxicity; PDxO 3D drug screen, 96 h, CTG-3D normalised to day-0 seeding control.). Conditions: 12.5 pM; days in culture: 52.

Structure (SMILES) | CTG-3D luminescence at 96 h
O=C(O)C1(C(=O)O)CCC1.[NH2-].[NH2-].[Pt+2] [carboplatin] | 1.92
COc1cc2c(Oc3ccc4[nH]c(C)cc4c3F)ncnc2cc1OCCCN1CCCC1 [cediranib] | 1.94
C[C@@H]1COCCN1c1cc(C2([S@](C)(=N)=O)CC2)nc(-c2cc[nH]c3nccc2-3)n1 [ceralasertib] | 2.13
Cc1cc(Nc2ncc(Cl)c(Nc3ccccc3S(=O)(=O)C(C)C)n2)c(OC(C)C)cc1C1CCNCC1 [ceritinib] | 2.34
O=C(c1ccc(F)c(F)c1Nc1ccc(I)cc1F)N1CC(O)([C@@H]2CCCCN2)C1 [cobimetinib] | 2.3
C[C@H](NC(=O)CCC(F)(F)F)C(=O)N[C@@H]1C(=O)N(CCO)c2ncccc2-c2ccccc21 [crenigacestat] | 2.36
COc1cccc2c1C(=O)c1c(O)c3c(c(O)c1C2=O)C[C@@](O)(C(=O)CO)C[C@@H]3O[C@H]1C[C@H](N)[C@H](O)[C@H](C)O1 [doxorubicin] | 2.23
C[C@]12CC[C@@H]3c4ccc(O)cc4C[C@@H](CCCCCCCCC[S+]([O-])CCCC(F)(F)C(F)(F)F)[C@H]3[C@@H]1CC[C@@H]2O (some centres not stated) [fulvestrant] | 2.11
Nc1ccn([C@@H]2O[C@H](CO)[C@@H](O)C2(F)F)c(=O)n1 [gemcitabine] | 2.22

Same assay, conditions: 12.5 pM; days in culture: 65

Structure (SMILES) | CTG-3D luminescence at 96 h
O=C(O)C1(C(=O)O)CCC1.[NH2-].[NH2-].[Pt+2] [carboplatin] | 1.63
COc1cc2c(Oc3ccc4[nH]c(C)cc4c3F)ncnc2cc1OCCCN1CCCC1 [cediranib] | 1.55
C[C@@H]1COCCN1c1cc(C2([S@](C)(=N)=O)CC2)nc(-c2cc[nH]c3nccc2-3)n1 [ceralasertib] | 1.69
Cc1cc(Nc2ncc(Cl)c(Nc3ccccc3S(=O)(=O)C(C)C)n2)c(OC(C)C)cc1C1CCNCC1 [ceritinib] | 1.61
O=C(c1ccc(F)c(F)c1Nc1ccc(I)cc1F)N1CC(O)([C@@H]2CCCCN2)C1 [cobimetinib] | 1.64
C[C@H](NC(=O)CCC(F)(F)F)C(=O)N[C@@H]1C(=O)N(CCO)c2ncccc2-c2ccccc21 [crenigacestat] | 1.61
COc1cccc2c1C(=O)c1c(O)c3c(c(O)c1C2=O)C[C@@](O)(C(=O)CO)C[C@@H]3O[C@H]1C[C@H](N)[C@H](O)[C@H](C)O1 [doxorubicin] | 1.7
C[C@]12CC[C@@H]3c4ccc(O)cc4C[C@@H](CCCCCCCCC[S+]([O-])CCCC(F)(F)C(F)(F)F)[C@H]3[C@@H]1CC[C@@H]2O (some centres not stated) [fulvestrant] | 1.66
Nc1ccn([C@@H]2O[C@H](CO)[C@@H](O)C2(F)F)c(=O)n1 [gemcitabine] | 1.64

Same assay, conditions: 12.5 pM; days in culture: 103

Structure (SMILES) | CTG-3D luminescence at 96 h
O=C(O)C1(C(=O)O)CCC1.[NH2-].[NH2-].[Pt+2] [carboplatin] | 3.69
COc1cc2c(Oc3ccc4[nH]c(C)cc4c3F)ncnc2cc1OCCCN1CCCC1 [cediranib] | 3.58
C[C@@H]1COCCN1c1cc(C2([S@](C)(=N)=O)CC2)nc(-c2cc[nH]c3nccc2-3)n1 [ceralasertib] | 3.6
Cc1cc(Nc2ncc(Cl)c(Nc3ccccc3S(=O)(=O)C(C)C)n2)c(OC(C)C)cc1C1CCNCC1 [ceritinib] | 3.59
O=C(c1ccc(F)c(F)c1Nc1ccc(I)cc1F)N1CC(O)([C@@H]2CCCCN2)C1 [cobimetinib] | 3.83
C[C@H](NC(=O)CCC(F)(F)F)C(=O)N[C@@H]1C(=O)N(CCO)c2ncccc2-c2ccccc21 [crenigacestat] | 3.59
COc1cccc2c1C(=O)c1c(O)c3c(c(O)c1C2=O)C[C@@](O)(C(=O)CO)C[C@@H]3O[C@H]1C[C@H](N)[C@H](O)[C@H](C)O1 [doxorubicin] | 3.64
C[C@]12CC[C@@H]3c4ccc(O)cc4C[C@@H](CCCCCCCCC[S+]([O-])CCCC(F)(F)C(F)(F)F)[C@H]3[C@@H]1CC[C@@H]2O (some centres not stated) [fulvestrant] | 3.27
Nc1ccn([C@@H]2O[C@H](CO)[C@@H](O)C2(F)F)c(=O)n1 [gemcitabine] | 3.39

Same assay, conditions: 0.00025 µM; days in culture: 52

Structure (SMILES) | CTG-3D luminescence at 96 h
O=C(O)C1(C(=O)O)CCC1.[NH2-].[NH2-].[Pt+2] [carboplatin] | 2.23
COc1cc2c(Oc3ccc4[nH]c(C)cc4c3F)ncnc2cc1OCCCN1CCCC1 [cediranib] | 2.48
C[C@@H]1COCCN1c1cc(C2([S@](C)(=N)=O)CC2)nc(-c2cc[nH]c3nccc2-3)n1 [ceralasertib] | 2.39
Cc1cc(Nc2ncc(Cl)c(Nc3ccccc3S(=O)(=O)C(C)C)n2)c(OC(C)C)cc1C1CCNCC1 [ceritinib] | 2.15
O=C(c1ccc(F)c(F)c1Nc1ccc(I)cc1F)N1CC(O)([C@@H]2CCCCN2)C1 [cobimetinib] | 2.56
C[C@H](NC(=O)CCC(F)(F)F)C(=O)N[C@@H]1C(=O)N(CCO)c2ncccc2-c2ccccc21 [crenigacestat] | 2.09
COc1cccc2c1C(=O)c1c(O)c3c(c(O)c1C2=O)C[C@@](O)(C(=O)CO)C[C@@H]3O[C@H]1C[C@H](N)[C@H](O)[C@H](C)O1 [doxorubicin] | 2.37
C[C@]12CC[C@@H]3c4ccc(O)cc4C[C@@H](CCCCCCCCC[S+]([O-])CCCC(F)(F)C(F)(F)F)[C@H]3[C@@H]1CC[C@@H]2O (some centres not stated) [fulvestrant] | 2.41
Nc1ccn([C@@H]2O[C@H](CO)[C@@H](O)C2(F)F)c(=O)n1 [gemcitabine] | 2.17

Same assay, conditions: 0.00025 µM; days in culture: 65

Structure (SMILES) | CTG-3D luminescence at 96 h
O=C(O)C1(C(=O)O)CCC1.[NH2-].[NH2-].[Pt+2] [carboplatin] | 1.56
COc1cc2c(Oc3ccc4[nH]c(C)cc4c3F)ncnc2cc1OCCCN1CCCC1 [cediranib] | 1.65
C[C@@H]1COCCN1c1cc(C2([S@](C)(=N)=O)CC2)nc(-c2cc[nH]c3nccc2-3)n1 [ceralasertib] | 1.62
Cc1cc(Nc2ncc(Cl)c(Nc3ccccc3S(=O)(=O)C(C)C)n2)c(OC(C)C)cc1C1CCNCC1 [ceritinib] | 1.61
O=C(c1ccc(F)c(F)c1Nc1ccc(I)cc1F)N1CC(O)([C@@H]2CCCCN2)C1 [cobimetinib] | 1.75
C[C@H](NC(=O)CCC(F)(F)F)C(=O)N[C@@H]1C(=O)N(CCO)c2ncccc2-c2ccccc21 [crenigacestat] | 1.63
COc1cccc2c1C(=O)c1c(O)c3c(c(O)c1C2=O)C[C@@](O)(C(=O)CO)C[C@@H]3O[C@H]1C[C@H](N)[C@H](O)[C@H](C)O1 [doxorubicin] | 1.65
C[C@]12CC[C@@H]3c4ccc(O)cc4C[C@@H](CCCCCCCCC[S+]([O-])CCCC(F)(F)C(F)(F)F)[C@H]3[C@@H]1CC[C@@H]2O (some centres not stated) [fulvestrant] | 1.76
Nc1ccn([C@@H]2O[C@H](CO)[C@@H](O)C2(F)F)c(=O)n1 [gemcitabine] | 1.79

Same assay, conditions: 0.00025 µM; days in culture: 103

Structure (SMILES) | CTG-3D luminescence at 96 h
O=C(O)C1(C(=O)O)CCC1.[NH2-].[NH2-].[Pt+2] [carboplatin] | 3.41
COc1cc2c(Oc3ccc4[nH]c(C)cc4c3F)ncnc2cc1OCCCN1CCCC1 [cediranib] | 3.43
C[C@@H]1COCCN1c1cc(C2([S@](C)(=N)=O)CC2)nc(-c2cc[nH]c3nccc2-3)n1 [ceralasertib] | 3.3
Cc1cc(Nc2ncc(Cl)c(Nc3ccccc3S(=O)(=O)C(C)C)n2)c(OC(C)C)cc1C1CCNCC1 [ceritinib] | 3.48
O=C(c1ccc(F)c(F)c1Nc1ccc(I)cc1F)N1CC(O)([C@@H]2CCCCN2)C1 [cobimetinib] | 3.96
C[C@H](NC(=O)CCC(F)(F)F)C(=O)N[C@@H]1C(=O)N(CCO)c2ncccc2-c2ccccc21 [crenigacestat] | 3.73
COc1cccc2c1C(=O)c1c(O)c3c(c(O)c1C2=O)C[C@@](O)(C(=O)CO)C[C@@H]3O[C@H]1C[C@H](N)[C@H](O)[C@H](C)O1 [doxorubicin] | 3.76
C[C@]12CC[C@@H]3c4ccc(O)cc4C[C@@H](CCCCCCCCC[S+]([O-])CCCC(F)(F)C(F)(F)F)[C@H]3[C@@H]1CC[C@@H]2O (some centres not stated) [fulvestrant] | 3.34
Nc1ccn([C@@H]2O[C@H](CO)[C@@H](O)C2(F)F)c(=O)n1 [gemcitabine] | 3.81

Same assay, conditions: 0.005 µM; days in culture: 52

Structure (SMILES) | CTG-3D luminescence at 96 h
O=C(O)C1(C(=O)O)CCC1.[NH2-].[NH2-].[Pt+2] [carboplatin] | 2.25
COc1cc2c(Oc3ccc4[nH]c(C)cc4c3F)ncnc2cc1OCCCN1CCCC1 [cediranib] | 2.23
C[C@@H]1COCCN1c1cc(C2([S@](C)(=N)=O)CC2)nc(-c2cc[nH]c3nccc2-3)n1 [ceralasertib] | 2.26
Cc1cc(Nc2ncc(Cl)c(Nc3ccccc3S(=O)(=O)C(C)C)n2)c(OC(C)C)cc1C1CCNCC1 [ceritinib] | 2.46
O=C(c1ccc(F)c(F)c1Nc1ccc(I)cc1F)N1CC(O)([C@@H]2CCCCN2)C1 [cobimetinib] | 2.39
C[C@H](NC(=O)CCC(F)(F)F)C(=O)N[C@@H]1C(=O)N(CCO)c2ncccc2-c2ccccc21 [crenigacestat] | 2.19
COc1cccc2c1C(=O)c1c(O)c3c(c(O)c1C2=O)C[C@@](O)(C(=O)CO)C[C@@H]3O[C@H]1C[C@H](N)[C@H](O)[C@H](C)O1 [doxorubicin] | 2.52
C[C@]12CC[C@@H]3c4ccc(O)cc4C[C@@H](CCCCCCCCC[S+]([O-])CCCC(F)(F)C(F)(F)F)[C@H]3[C@@H]1CC[C@@H]2O (some centres not stated) [fulvestrant] | 2.26
Nc1ccn([C@@H]2O[C@H](CO)[C@@H](O)C2(F)F)c(=O)n1 [gemcitabine] | 0.657

Same assay, conditions: 0.005 µM; days in culture: 65

Structure (SMILES) | CTG-3D luminescence at 96 h
O=C(O)C1(C(=O)O)CCC1.[NH2-].[NH2-].[Pt+2] [carboplatin] | 1.74
COc1cc2c(Oc3ccc4[nH]c(C)cc4c3F)ncnc2cc1OCCCN1CCCC1 [cediranib] | 1.76
C[C@@H]1COCCN1c1cc(C2([S@](C)(=N)=O)CC2)nc(-c2cc[nH]c3nccc2-3)n1 [ceralasertib] | 1.85
Cc1cc(Nc2ncc(Cl)c(Nc3ccccc3S(=O)(=O)C(C)C)n2)c(OC(C)C)cc1C1CCNCC1 [ceritinib] | 1.79
O=C(c1ccc(F)c(F)c1Nc1ccc(I)cc1F)N1CC(O)([C@@H]2CCCCN2)C1 [cobimetinib] | 1.83
C[C@H](NC(=O)CCC(F)(F)F)C(=O)N[C@@H]1C(=O)N(CCO)c2ncccc2-c2ccccc21 [crenigacestat] | 1.79
COc1cccc2c1C(=O)c1c(O)c3c(c(O)c1C2=O)C[C@@](O)(C(=O)CO)C[C@@H]3O[C@H]1C[C@H](N)[C@H](O)[C@H](C)O1 [doxorubicin] | 1.8
C[C@]12CC[C@@H]3c4ccc(O)cc4C[C@@H](CCCCCCCCC[S+]([O-])CCCC(F)(F)C(F)(F)F)[C@H]3[C@@H]1CC[C@@H]2O (some centres not stated) [fulvestrant] | 1.86
Nc1ccn([C@@H]2O[C@H](CO)[C@@H](O)C2(F)F)c(=O)n1 [gemcitabine] | 0.508
